Values joined by “and” are separate entries in the source; they are usually repeats but may differ in a detail not shown here. Identical values can stand only once. Toxic doses and inconclusive results are not listed. Rule for the calls: active = survival T/C of 150% or more; inactive = T/C below 125% in these data.
Tested on: CD2F1 mice, L1210 leukemia ip, survival T/C
Assay: NCI In Vivo Anticancer Drug Screen. Data for tumor model L1210 Leukemia (intraperitoneal) in CD2F1 (CDF1) mice
Settings: higher = longer survival
How it was run: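 Read-out first: treated-group measurement over vehicle-control measurement, expressed as a ratio. Animals bore a transplanted tumor line and were dosed with compound or vehicle.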

[1] = endpoint: mean survival time, dose: 100.0 mg/kg/injection, schedule: Q04DX003 (ip), vehicle: saline with Tween-80
[2] = endpoint: mean survival time, dose: 200.0 mg/kg/injection, schedule: Q04DX003 (ip), vehicle: saline with Tween-80
[3] = endpoint: mean survival time, dose: 400.0 mg/kg/injection, schedule: Q04DX003 (ip), vehicle: saline with Tween-80
[4] = endpoint: mean survival time, dose: 25.0 mg/kg/injection, schedule: Q01DX009 (ip), vehicle: saline with Tween-80
[5] = endpoint: mean survival time, dose: 50.0 mg/kg/injection, schedule: Q01DX009 (ip), vehicle: saline with Tween-80
[6] = endpoint: mean survival time, dose: 100.0 mg/kg/injection, schedule: Q01DX009 (ip), vehicle: saline with Tween-80
[7] = endpoint: mean survival time, dose: 200.0 mg/kg/injection, schedule: Q01DX009 (ip), vehicle: saline with Tween-80
[8] = endpoint: mean survival time, dose: 100.0 mg/kg/injection, schedule: Q01DX001 (ip), vehicle: saline with Tween-80
[9] = endpoint: mean survival time, dose: 200.0 mg/kg/injection, schedule: Q01DX001 (ip), vehicle: saline with Tween-80
[10] = endpoint: mean survival time, dose: 400.0 mg/kg/injection, schedule: Q01DX001 (ip), vehicle: saline with Tween-80
[11] = endpoint: mean survival time, dose: 100.0 mg/kg/injection, schedule: Q04DX003 (ip), vehicle: saline
[12] = endpoint: mean survival time, dose: 200.0 mg/kg/injection, schedule: Q04DX003 (ip), vehicle: saline
[13] = endpoint: mean survival time, dose: 400.0 mg/kg/injection, schedule: Q04DX003 (ip), vehicle: saline

Measured: T/C

CC(=O)NC(CCc1ccc(Cl)c(Cl)c1)c1cccc(O)c(=O)c1 (stereo unspecified)
inactive: endpoint: median survival time, dose: 3.12 mg/kg/injection, schedule: Q01DX009 (ip), vehicle: Klucel (hydroxypropylcellulose) (HPC) 94 % of control | endpoint: median survival time, dose: 6.25 mg/kg/injection, schedule: Q01DX009 (ip), vehicle: Klucel (hydroxypropylcellulose) (HPC) 100 % of control | endpoint: median survival time, dose: 12.5 mg/kg/injection, schedule: Q01DX009 (ip), vehicle: Klucel (hydroxypropylcellulose) (HPC) 106 % of control | endpoint: median survival time, dose: 25.0 mg/kg/injection, schedule: Q01DX009 (ip), vehicle: Klucel (hydroxypropylcellulose) (HPC) 102 % of control | endpoint: median survival time, dose: 50.0 mg/kg/injection, schedule: Q01DX009 (ip), vehicle: Klucel (hydroxypropylcellulose) (HPC) 103 % of control | endpoint: median survival time, dose: 100.0 mg/kg/injection, schedule: Q01DX009 (ip), vehicle: Klucel (hydroxypropylcellulose) (HPC) 116 % of control

O=C1CSc2ccccc2N1CCN1C(=O)CSc2ccccc21
inactive: endpoint: mean survival time, dose: 100.0 mg/kg/injection, schedule: Q04DX003 (ip), vehicle: Klucel (hydroxypropylcellulose) (HPC) 90 % of control | endpoint: mean survival time, dose: 200.0 mg/kg/injection, schedule: Q04DX003 (ip), vehicle: Klucel (hydroxypropylcellulose) (HPC) 86 % of control | endpoint: mean survival time, dose: 400.0 mg/kg/injection, schedule: Q04DX003 (ip), vehicle: Klucel (hydroxypropylcellulose) (HPC) 86 % of control

CCNC1=C(C)C(=O)C2=C(C1=O)C(COC(N)=O)C1(OC)C3NC3CN21 (stereo unspecified)
inactive: endpoint: mean survival time, dose: 1.5 mg/kg/injection, schedule: Q01DX001 (ip), vehicle: water 98 % of control | endpoint: mean survival time, dose: 3.0 mg/kg/injection, schedule: Q01DX001 (ip), vehicle: water 110 % of control | endpoint: mean survival time, dose: 6.0 mg/kg/injection, schedule: Q01DX001 (ip), vehicle: water 110 % of control | endpoint: mean survival time, dose: 12.0 mg/kg/injection, schedule: Q01DX001 (ip), vehicle: water 114 % of control

Cc1ccc(S(=O)(=O)OC2CCC3(C)C(CCC4C3CCC3(C)C(C(C)CCCC(C)C)CCC43)C2)cc1 (stereo unspecified)
inactive: [1] 92 % of control | [2] 90 % of control | [3] 89 % of control

COC(=O)C(C)C1(O)CCCCC1 (stereo unspecified)
inactive: [1] 97 % of control | [2] 95 % of control | [3] 98 % of control

Cc1nc(N)sc1S(=O)(=O)F
inactive: [4] 97 % of control | [5] 111 % of control | [6] 94 % of control and 108 % of control | [7] 101 % of control

COc1ccc2ccccc2c1
inactive: [8] 101 % of control | endpoint: mean survival time, dose: 100.0 mg/kg/injection, schedule: Q04DX003 (ip), vehicle: other 100 % of control | [9] 100 % of control | endpoint: mean survival time, dose: 200.0 mg/kg/injection, schedule: Q04DX003 (ip), vehicle: other 104 % of control | [10] 111 % of control

O=C(O)c1ccc(CC2CCC2)cc1
inactive: endpoint: mean survival time, dose: 100.0 mg/kg/injection, schedule: Q04DX002 (ip), vehicle: saline with Tween-80 96 % of control | endpoint: mean survival time, dose: 200.0 mg/kg/injection, schedule: Q04DX002 (ip), vehicle: saline with Tween-80 96 % of control | endpoint: mean survival time, dose: 400.0 mg/kg/injection, schedule: Q04DX002 (ip), vehicle: saline with Tween-80 89 % of control

CN=Cc1ccc(OC)cc1
inactive: [4] 116 % of control | [5] 96 % of control | [6] 102 % of control | [1] 94 % of control

CC(C)(C)CC1(C)NC(=O)NC1=O (stereo unspecified)
inactive: endpoint: mean survival time, dose: 100.0 mg/kg/injection, schedule: Q01DX001 (ip), vehicle: saline 100 % of control | endpoint: mean survival time, dose: 200.0 mg/kg/injection, schedule: Q01DX001 (ip), vehicle: saline 97 % of control | endpoint: mean survival time, dose: 400.0 mg/kg/injection, schedule: Q01DX001 (ip), vehicle: saline 100 % of control

CC1CC(C)(C)NC1=O (stereo unspecified)
inactive: endpoint: mean survival time, dose: 6.25 mg/kg/injection, schedule: Q04DX003 (ip), vehicle: saline 103 % of control | endpoint: mean survival time, dose: 12.5 mg/kg/injection, schedule: Q04DX003 (ip), vehicle: saline 104 % of control | endpoint: mean survival time, dose: 25.0 mg/kg/injection, schedule: Q04DX003 (ip), vehicle: saline 95 % of control

CCCCCCCCCCCCCCCc1cc(=O)n(-c2ccc(C(=O)OCC)cc2)n1C
inactive: [6] 92 % of control | [1] 97 % of control | [7] 86 % of control | [2] 88 % of control | [3] 100 % of control

Oc1ccccc1OCCOCCOc1ccccc1O
inactive: endpoint: mean survival time, dose: 50.0 mg/kg/injection, schedule: Q04DX002 (ip), vehicle: other 100 % of control | endpoint: mean survival time, dose: 100.0 mg/kg/injection, schedule: Q04DX002 (ip), vehicle: other 88 % of control | endpoint: mean survival time, dose: 200.0 mg/kg/injection, schedule: Q04DX002 (ip), vehicle: other 103 % of control | endpoint: mean survival time, dose: 400.0 mg/kg/injection, schedule: Q04DX002 (ip), vehicle: other 103 % of control

COC(=O)/C=C(/Nc1ccccc1C(=O)O)C(=O)OC
inactive: [11] 89 % of control | [12] 101 % of control | [13] 90 % of control

COc1cccc(CC(C)N)c1OC (stereo unspecified)
inactive: endpoint: mean survival time, dose: 25.0 mg/kg/injection, schedule: Q01DX009 (ip), vehicle: saline 98 % of control | endpoint: mean survival time, dose: 50.0 mg/kg/injection, schedule: Q01DX009 (ip), vehicle: saline 95 % of control | endpoint: mean survival time, dose: 100.0 mg/kg/injection, schedule: Q01DX009 (ip), vehicle: saline 93 % of control | [1] 95 % of control

O=C(O)c1ccc(C(=O)O)c2c(C(=O)O)ccc(C(=O)O)c12
inactive: [6] 95 % of control | [11] 97 % of control | [7] 90 % of control | [12] 96 % of control | [13] 93 % of control

NC(=O)COc1ccc(Cl)cc1Cl
inactive: [8] 98 % of control | [6] 94 % of control | [9] 94 % of control | [7] 96 % of control | [10] 94 % of control

C1=CC2C3=CC1C=CC32 (stereo unspecified)
inactive: endpoint: mean survival time, dose: 100.0 mg/kg/injection, schedule: Q01DX009 (ip), vehicle: acetone 92 % of control | endpoint: mean survival time, dose: 200.0 mg/kg/injection, schedule: Q01DX009 (ip), vehicle: acetone 95 % of control

CN1CCC(O)(C#N)CC1
inactive: endpoint: mean survival time, dose: 3.75 mg/kg/injection, schedule: Q04DX003 (ip), vehicle: saline 102 % of control | endpoint: mean survival time, dose: 7.5 mg/kg/injection, schedule: Q04DX003 (ip), vehicle: saline 102 % of control | endpoint: mean survival time, dose: 15.0 mg/kg/injection, schedule: Q04DX003 (ip), vehicle: saline 100 % of control

COc1ccc(O)c(C=O)c1
inactive: [1] 100 % of control | [2] 110 % of control | [3] 95 % of control

Br/C(C=Nc1ccccc1)=C\Nc1ccccc1
inactive: [6] 102 % of control | [1] 101 % of control | [7] 86 % of control | [2] 108 % of control | endpoint: mean survival time, dose: 400.0 mg/kg/injection, schedule: Q01DX009 (ip), vehicle: saline with Tween-80 86 % of control | [3] 108 % of control
